Laboratory results as given in patent US6756504B2, “Sphingolipids” (Yissum Research Development Company of the Hebrew …, priority 2000, dated 2004).

Legend:
acid sphingomyelinase = molecular target: T1, acid sphingomyelinase (Homo sapiens, UniProt P17405); test: Acid sphingomyelinase inhibition, HL60 sonicate; format: biochemical; settings: pH 5.0, 300 μM
T1 construct: a sonicate of HL60 leukemic cells was used as enzyme source; endogenous in cells; host or cells: HL60 leukemic cells (sonicate)
T1 sequence (P17405 47-631): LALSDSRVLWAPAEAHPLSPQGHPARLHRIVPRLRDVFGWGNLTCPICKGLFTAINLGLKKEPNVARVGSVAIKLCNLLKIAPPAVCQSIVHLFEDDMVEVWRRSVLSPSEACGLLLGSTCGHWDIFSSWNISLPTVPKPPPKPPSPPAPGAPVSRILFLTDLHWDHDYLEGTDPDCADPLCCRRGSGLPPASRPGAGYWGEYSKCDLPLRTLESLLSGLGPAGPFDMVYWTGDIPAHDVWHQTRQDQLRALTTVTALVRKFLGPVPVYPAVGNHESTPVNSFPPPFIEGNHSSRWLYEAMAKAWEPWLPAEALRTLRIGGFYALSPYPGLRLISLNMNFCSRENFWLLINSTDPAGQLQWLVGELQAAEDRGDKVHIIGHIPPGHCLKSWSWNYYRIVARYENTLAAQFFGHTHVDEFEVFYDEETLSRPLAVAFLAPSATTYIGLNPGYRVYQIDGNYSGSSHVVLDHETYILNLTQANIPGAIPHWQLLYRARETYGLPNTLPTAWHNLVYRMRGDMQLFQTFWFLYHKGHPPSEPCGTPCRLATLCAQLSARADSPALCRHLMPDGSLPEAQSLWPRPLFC
Description: (§1) N-hexyl-sphingosyl phosphorylcholine (AD-2144) was tested as to its inhibitory effect on sphingomyelinases, acidic (i.e., with an optimum at about pH 5) or neutral (with a pH optimum at about pH 7.4). For this purpose a sonicate of HL60 leukemic cells was used as enzyme source. Increasing concentrations of AD-2144 were dispersed by a mixture of fluorescent and non-fluorescent sphingomyelin (Bodipy-C12-SPM:SPM, 1:19), buffer and 0.25% Triton-X10O in a volume of 100 μl. For acid sphingomyelinase 0.4M acetate buffer pH 5.0 was used; for neutral sphingomyelinase 0.2M Tris buffer, pH 7.4 and 5 mM magnesium chloride. To 100 μl of these dispersions, 100 μl of HL60 cells sonicate were added. Incubation was 2-3 hours after which 0.8 ml of chloroform:methanol 2:1 were added, stirred and the lower, chloroform phase was collected, dried and applied to a thin layer chromatography plate. The plate was developed in a mixture of chloroform and methanol, 87:3. The fluorescence of the product, i.e., Bodipy-C12-ceramide, was quantified.

neutral sphingomyelinase = test: Neutral sphingomyelinase inhibition, HL60 sonicate; format: biochemical, Human; settings: pH 7.4, 300 μM
Description: as §1

HL60 cells [1] = test: HL60 total protein content (Bradford); format: cell-based, Human
Description: (§2) HL60: Human leukemia cell line (ATCC CCL-240).
The effect of the AD-2646 compound on cell viability was further supported when the total protein content was quantified. HL60 cells were incubated as described above, with different concentrations of AD-2646. After 2 days the cells were collected, washed twice with saline, dispersed and following a short pulsing with a probe-sonicator their protein content was quantified by the Bradford procedure. Similarly to the viable cell counting results, the protein measurements indicated an IC50 value of 5 μM.
To analyze whether the AD-2646 compound may mediate its effect on cell viability and on total protein content, in cooperation with other compounds, the cooperative effect of this compound and Taxol was next evaluated. HL60 cells were incubated for two days with 4 μM AD2646 in the presence or absence of 2 ng Taxol.
The effect of different compounds of the invention on cell viability was next evaluated by measuring total cell protein quantity. Different cell lines were incubated for two days in the presence of increasing concentrations of the different compounds of the present invention.

[2] = tested on: Bod3-SPM (sphingomyelin) synthesis in HL60 cells; test: Sphingolipid metabolism from Bodipy-C3-ceramide: Bod3-SPM in HL60; format: cell-based, Human; settings: for IC50: HL60, 3 hours, 2.5 μM Bodipy-C3-ceramide, read-out: od 3-SPM (IC50 for reduction of Bod3-SPM, cell+medium); for inhibition of Bod3-SPM (fluorescent image): HL60, 10 μM
Description: (§3) In order to examine the effect of the different compounds on sphingolipids metabolism, different cell lines were incubated with increasing concentrations of different compounds of the invention in the presence of 2.5 μM Bodipy-C3-ceramide that was added to the culture medium as a solution in dimethylsulfoxide (not exceeding 0.1% DMSO of the final volium). After 3 hours, cells and medium were collected and centrifuged. Cells were next extracted with chloroform-methanol containing 2% acetic acid 1:1 (by volume) and the medium was shaken with an equal volume of chloroform-methanol, 1:1 (by volume). The phases were separated by centrifugation and the lower chloroform phase was collected. The solvents were evaporated and applied to thin layer chromatography silica gel plates (Whatman 4865-821) with a concentrating zone.
(§4) Plates were developed as follows: For medium: in chloroform-methanol-H2O, 75:25:4 by volume. For cells: plates were first developed with chloroform-methanol, 9:1, then dried and re-run in chloroform-methanol: H2O, 65:35:4.
(§5) Standards of Bodipy-C3-ceramide: Bodipy-C3-glucosylceramide (Bod3-GC) and Bodipy C3 sphingomyelin (Bod3-SPM) were used as markers. The fluorescence of the respective Bod3-SPM and Bod3-GC spots was quantified using a Fuji FLA-2000 scanner.

Swiss mice = test: In vivo toxicity of AD-2646, mice viability
Description: Six groups, each of 5 Swiss mice were injected, intra-peritoneally with solutions of AD-2646, at varying concentrations, each in a volume of 100 μl. Injections were performed on days 1, 2, 3, 4, and mice viability was tested (Table 5).

[3] = tested on: Bod3-SPM synthesis in TSU-PR1 prostate cancer cells; test: Sphingolipid metabolism: Bod3-SPM in TSU-PR1; format: cell-based; settings: TSU-PR1, 3 hours, FIG. 5; read-out: IC50 for reduction of Bod3-SPM
Description: as §3, §4, §5
The effect of AD-2646 on sphingolipid metabolism was further examined using TSU-PR1 prostate cancer cells.

[4] = tested on: Bod3-GC (glucosylceramide) synthesis in HL60 cells; test: Sphingolipid metabolism from Bodipy-C3-ceramide: Bod3-GC in HL60; format: cell-based, Human; settings: for reduction of the level of Bod3-GC (fluorescent image): HL60, 10 μM
Description: as §3, §4, §5

HL60 cells [5] = test: Apoptosis in HL60 cells, propidium iodide flow cytometry (FACS); format: cell-based, Human
Description: The apoptotic effect of three different compounds was further examined on HL60 cells using a flow cytometry method. […] Washed cells were then treated with 5% Triton and stained with propidium iodide 0.5% mg in 0.1% sodium citrate pH 7.4. Analysis was performed using a Becton Dickinson Fluorescence Activated Cell Sorter (FACS).

HL60 cells [6] = test: HL60 cell viability, viable cell count (trypan blue); format: cell-based, Human; settings: HL60, 2 days, FIG. 1, read-out: IC50, number of living (non-blue) cells
Description: as §2
The effect of AD-2646 on cell viability was analyzed by measuring cell mortality (viable cell count) and/or total protein quantity.
HL60 cells grown in RMPI plus 10% fetal calf serum, were incubated with increasing concentrations of (2R,3R)-2-(N-tetradecylamine)-1-(4-nitro-phenyl)-1,3-propanediol (AD-2646) in 6- or 24-well dishes. […] After 2 days the cells were collected, washed twice with saline, treated with trypan blue and the number of living (non-blue) cells was counted. FIG. 1 indicates an IC50 value of 5 μM.
Kinetic of the observed killing effect of the AD-2646 compound was next examined. HL60 cells were incubated with 40 μM of AD-2646 for 1, 3, 5 and 7 hours. Already after 1 hour a reduction of 60% of the viable cell number was observed.

[7] = literature (Wieder et al. 1998); cited from earlier work
[8] = HL60, two days, 4 μM AD-2646 plus 2 ng Taxol

## CCCCCCCCCCCCC/C=C/[C@H](O)[C@@H](COP(=O)([O-])OCC[N+](C)(C)C)NCCCCCC [AD-2144, L-Erythro Sphingosyl Phosphorylcholine-N-Hexyl]
Acid sphingomyelinase
  reduction in Bodipy-C12-ceramide: over 60%
Neutral sphingomyelinase
  reduction in Bodipy-C12-ceramide: over 60%

## CC(C)(C)OC(=O)NCCCCCCCCCCCC(=O)Nc1ccc([C@H](O)[C@@H](CO)NC(=O)OC(C)(C)C)cc1 [AD-2620, (2R,3S)-2-BOC-amino-1-[4-N-(dodecanoyl-12-N-BOC amine)-phenyl)-1,3-propanediol]
HL60 cells [1]; HL60, two days, read-out: C50 (cell viability, total cell protein)
  IC50: 3 µM

## CCCCCCCCCCCCCCN[C@H](CO)[C@H](O)c1ccc([N+](=O)[O-])cc1 [AD-2646, (2R,3R)-2-(N-tetradecylamine)-1-(4-nitrophenyl)-1,3-propanediol]
[2]
  IC50: ~6 µM
Swiss mice; 1 mg/kg i.p. days 1-4, groups of 5 mice, day 1
  No. of mice in each day: 5
Swiss mice; 1 mg/kg i.p. days 1-4, groups of 5 mice, day 2
  No. of mice in each day: 5
Swiss mice; 1 mg/kg i.p. days 1-4, groups of 5 mice, day 3
  No. of mice in each day: 5
Swiss mice; 1 mg/kg i.p. days 1-4, groups of 5 mice, day 4
  No. of mice in each day: 5
Swiss mice; 1 mg/kg i.p. days 1-4, groups of 5 mice, day 5
  No. of mice in each day: 5
Swiss mice; 1 mg/kg i.p. days 1-4, groups of 5 mice, day 6
  No. of mice in each day: 5
Swiss mice; 5 mg/kg i.p. days 1-4, groups of 5 mice, day 1
  No. of mice in each day: 5
Swiss mice; 5 mg/kg i.p. days 1-4, groups of 5 mice, day 2
  No. of mice in each day: 5
Swiss mice; 5 mg/kg i.p. days 1-4, groups of 5 mice, day 3
  No. of mice in each day: 5
Swiss mice; 5 mg/kg i.p. days 1-4, groups of 5 mice, day 4
  No. of mice in each day: 5
Swiss mice; 5 mg/kg i.p. days 1-4, groups of 5 mice, day 5
  No. of mice in each day: 5
Swiss mice; 5 mg/kg i.p. days 1-4, groups of 5 mice, day 6
  No. of mice in each day: 5
Swiss mice; 10 mg/kg i.p. days 1-4, groups of 5 mice, day 1
  No. of mice in each day: 5
Swiss mice; 10 mg/kg i.p. days 1-4, groups of 5 mice, day 2
  No. of mice in each day: 5
Swiss mice; 10 mg/kg i.p. days 1-4, groups of 5 mice, day 3
  No. of mice in each day: 5
Swiss mice; 10 mg/kg i.p. days 1-4, groups of 5 mice, day 4
  No. of mice in each day: 5
Swiss mice; 10 mg/kg i.p. days 1-4, groups of 5 mice, day 5
  No. of mice in each day: 5
Swiss mice; 10 mg/kg i.p. days 1-4, groups of 5 mice, day 6
  No. of mice in each day: 5
Swiss mice; 25 mg/kg i.p. days 1-4, groups of 5 mice, day 2
  No. of mice in each day: 5
Swiss mice; 25 mg/kg i.p. days 1-4, groups of 5 mice, day 3
  No. of mice in each day: 5
Swiss mice; 25 mg/kg i.p. days 1-4, groups of 5 mice, day 4
  No. of mice in each day: 5
Swiss mice; 25 mg/kg i.p. days 1-4, groups of 5 mice, day 5
  No. of mice in each day: 5
Swiss mice; 25 mg/kg i.p. days 1-4, groups of 5 mice, day 6
  No. of mice in each day: 5
Swiss mice; 50 mg/kg i.p. days 1-4, groups of 5 mice, day 1
  No. of mice in each day: 5
Swiss mice; 50 mg/kg i.p. days 1-4, groups of 5 mice, day 2
  No. of mice in each day: 5
[3]
  IC50: ~5 µM
[4]; HL60, 3 hours, 2.5 μM Bodipy-C3-ceramide, read-out: od 3-GC (IC50 for Bod3-GC reduction)
  IC50: 12 µM
HL60 cells [5]; HL60, 3 hours, 10 μM
  apoptotic cells: 12%
HL60 cells [5]; HL60, 3 hours, 20 μM
  apoptotic cells: 18%
HL60 cells [5]; HL60, 3 hours, 40 μM
  apoptotic cells: 26%
HL60 cells [5]; HL60, 24 hours, 10 μM
  apoptotic cells: about 50%
HL60 cells [6]
  IC50: 5 µM
HL60 cells [1]; HL60, 2 days, Bradford, read-out: IC50, protein content
  IC50: 5 µM
HL60 cells [1]; [8]
  Protein content: 93 µg
  cooperative effect with Taxol on total protein quantity: synergism

## CCCCCCCCCCCCCCN[C@H](CO)[C@H](O)c1ccc(N)cc1 [AD-2672, (2R,3R)-2-(N-tetradecylamine)-1-(4-aminophenyl)-1,3-propanediol]
[2]; HL60, 5 and 10 μM, FIG. 6
  effect on level of Bod3-SPM (fluorescent image): strongly reduces
[2]
  IC50: 4 µM
[4]; HL60, 5 and 10 μM, FIG. 6
  effect on level of Bod3-GC (fluorescent image): not

## CCCCCCCCCCCC(=O)Nc1ccc([C@@H](O)[C@H](N)CO)cc1 [AD-2673, (2R,3R)-2 amino-1-(N-dodecanoylaminophenyl)-1,3-propanediol]
[2]; FIG. 6
  inhibition of Bod3-SPM (fluorescent image): low inhibition
[2]
  IC50: 6 µM
[4]; FIG. 6
  reduction of the level of Bod3-GC (fluorescent image): much stronger reduction

## CCCCCCCCCCCC(=O)Nc1ccc([C@H](O)[C@@H](N)CO)cc1 [AD-2674]
[2]; FIG. 6
  inhibition of Bod3-SPM (fluorescent image): low inhibition
[4]; FIG. 6
  reduction of the level of Bod3-GC (fluorescent image): much stronger reduction

## CCCCCCCCCCCCCCCCOP(=O)([O-])OCC[N+](C)(C)C [HePC, hexadecylphosphocholine]
[7]
  concentration shown to induce apoptosis: 25 µM

## CC(=O)O[C@H]1C(=O)[C@@]2(C)[C@H]([C@H](OC(=O)c3ccccc3)[C@]3(O)C[C@H](OC(=O)[C@H](O)[C@@H](NC(=O)c4ccccc4)c4ccccc4)C(C)=C1C3(C)C)[C@]1(OC(C)=O)CO[C@@H]1C[C@@H]2O [Taxol, reference compound]
HL60 cells [1]; HL60, two days, 2 ng Taxol alone
  Protein content: 206 µg
